Calls of active or inactive are those of the source. The rule behind the calls is not given here.
Assays:
Nischarin = Nischarin (Rattus norvegicus, UniProt Q4G017); assay: Displacement of [125I]-p-iodoclonidin from I1-imidazoline receptor in rat PC12 cell membranes; design: species or system PC-12
[1] = target: T1, Adrenergic receptor alpha-2 (Rattus norvegicus, UniProt P22086+P19328+P22909); assay: Displacement of [3H]-clonidine from alpha2 adrenoreceptor in rat cortex membranes; assay type: cell membranes
T1 sequence (P22086 whole entry): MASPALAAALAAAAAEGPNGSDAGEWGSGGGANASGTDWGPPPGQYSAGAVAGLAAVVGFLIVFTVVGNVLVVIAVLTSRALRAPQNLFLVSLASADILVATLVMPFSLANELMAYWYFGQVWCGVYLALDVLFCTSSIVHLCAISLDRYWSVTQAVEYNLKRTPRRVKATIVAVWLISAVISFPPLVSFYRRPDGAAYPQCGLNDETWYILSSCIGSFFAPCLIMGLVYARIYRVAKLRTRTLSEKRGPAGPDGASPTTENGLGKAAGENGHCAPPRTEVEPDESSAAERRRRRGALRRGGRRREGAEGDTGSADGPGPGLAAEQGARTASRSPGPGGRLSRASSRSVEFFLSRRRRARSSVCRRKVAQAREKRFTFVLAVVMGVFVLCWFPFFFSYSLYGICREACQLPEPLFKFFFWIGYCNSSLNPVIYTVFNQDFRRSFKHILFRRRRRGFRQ
T1 sequence (P19328 whole entry): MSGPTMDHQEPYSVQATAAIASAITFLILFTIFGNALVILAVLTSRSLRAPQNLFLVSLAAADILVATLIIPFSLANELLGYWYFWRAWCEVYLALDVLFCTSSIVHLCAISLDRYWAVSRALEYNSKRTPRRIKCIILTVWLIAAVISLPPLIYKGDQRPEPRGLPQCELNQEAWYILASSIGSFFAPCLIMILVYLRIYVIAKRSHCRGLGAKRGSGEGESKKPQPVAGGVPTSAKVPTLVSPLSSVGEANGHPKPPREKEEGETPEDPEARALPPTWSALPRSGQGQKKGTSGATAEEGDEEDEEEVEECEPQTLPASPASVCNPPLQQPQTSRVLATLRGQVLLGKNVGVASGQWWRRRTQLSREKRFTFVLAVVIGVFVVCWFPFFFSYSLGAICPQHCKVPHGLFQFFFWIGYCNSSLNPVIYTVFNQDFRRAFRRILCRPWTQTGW
T1 sequence (P22909 whole entry): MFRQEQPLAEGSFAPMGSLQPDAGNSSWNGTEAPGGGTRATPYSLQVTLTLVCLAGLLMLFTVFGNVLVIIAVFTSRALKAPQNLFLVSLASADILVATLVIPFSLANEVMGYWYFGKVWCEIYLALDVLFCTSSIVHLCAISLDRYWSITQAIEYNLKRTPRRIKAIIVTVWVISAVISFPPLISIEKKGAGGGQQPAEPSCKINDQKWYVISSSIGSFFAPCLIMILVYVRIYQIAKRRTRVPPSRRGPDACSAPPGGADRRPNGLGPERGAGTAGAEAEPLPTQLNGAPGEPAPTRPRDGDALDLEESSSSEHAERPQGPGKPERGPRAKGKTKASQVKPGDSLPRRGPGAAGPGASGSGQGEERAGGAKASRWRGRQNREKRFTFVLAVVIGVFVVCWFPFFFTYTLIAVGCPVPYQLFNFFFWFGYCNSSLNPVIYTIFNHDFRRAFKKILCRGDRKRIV

Rattus norvegicus [2] = assay: Reduction in heart rate in spontaneously hypertensive rat at 30 mg/kg, ip administered as single dose and measured 120 mins post dose by tail-cuff plethysmography; assay type: functional; settings: 2 h
Rattus norvegicus [3] = assay: Reduction in mean arterial blood pressure in spontaneously hypertensive rat at 30 mg/kg, ip administered as single dose and measured 60 mins post dose by tail-cuff plethysmography; assay type: functional; settings: 1 h
Rattus norvegicus [4] = assay: Reduction in mean arterial blood pressure in spontaneously hypertensive rat at 30 mg/kg, ip administered as single dose and measured 120 mins post dose by tail-cuff plethysmography; assay type: functional; settings: 2 h
Rattus norvegicus [5] = assay: Reduction in heart rate in spontaneously hypertensive rat at 30 mg/kg, ip administered as single dose and measured 30 mins post dose by tail-cuff plethysmography; assay type: functional; settings: 0.5 h
Rattus norvegicus [6] = assay: Reduction in mean arterial blood pressure in spontaneously hypertensive rat at 30 mg/kg, ip administered as single dose and measured 30 mins post dose by tail-cuff plethysmography; assay type: functional; settings: 0.5 h
Rattus norvegicus [7] = assay: Reduction in heart rate in spontaneously hypertensive rat at 30 mg/kg, ip administered as single dose and measured 60 mins post dose by tail-cuff plethysmography; assay type: functional; settings: 1 h
PC-12 = assay: Selectivity ratio, […]-imidazoline receptor in rat PC12 cell membranes to […] adrenoreceptor in rat cortex membranes; assay type: cell-based
Rattus norvegicus [8] = assay: Reduction in mean arterial blood pressure in spontaneously hypertensive rat at 30 mg/kg, ip administered as single dose and measured 30 to 120 mins post dose pre-treated with 30 mg/kg, ip 2-(1-phenylpropan-2-yl)-4,5-dihydro-1H-imidazole by tail-cuff plethysmography; assay type: functional, organism-based

Chain of Nischarin (Q4G017 whole entry): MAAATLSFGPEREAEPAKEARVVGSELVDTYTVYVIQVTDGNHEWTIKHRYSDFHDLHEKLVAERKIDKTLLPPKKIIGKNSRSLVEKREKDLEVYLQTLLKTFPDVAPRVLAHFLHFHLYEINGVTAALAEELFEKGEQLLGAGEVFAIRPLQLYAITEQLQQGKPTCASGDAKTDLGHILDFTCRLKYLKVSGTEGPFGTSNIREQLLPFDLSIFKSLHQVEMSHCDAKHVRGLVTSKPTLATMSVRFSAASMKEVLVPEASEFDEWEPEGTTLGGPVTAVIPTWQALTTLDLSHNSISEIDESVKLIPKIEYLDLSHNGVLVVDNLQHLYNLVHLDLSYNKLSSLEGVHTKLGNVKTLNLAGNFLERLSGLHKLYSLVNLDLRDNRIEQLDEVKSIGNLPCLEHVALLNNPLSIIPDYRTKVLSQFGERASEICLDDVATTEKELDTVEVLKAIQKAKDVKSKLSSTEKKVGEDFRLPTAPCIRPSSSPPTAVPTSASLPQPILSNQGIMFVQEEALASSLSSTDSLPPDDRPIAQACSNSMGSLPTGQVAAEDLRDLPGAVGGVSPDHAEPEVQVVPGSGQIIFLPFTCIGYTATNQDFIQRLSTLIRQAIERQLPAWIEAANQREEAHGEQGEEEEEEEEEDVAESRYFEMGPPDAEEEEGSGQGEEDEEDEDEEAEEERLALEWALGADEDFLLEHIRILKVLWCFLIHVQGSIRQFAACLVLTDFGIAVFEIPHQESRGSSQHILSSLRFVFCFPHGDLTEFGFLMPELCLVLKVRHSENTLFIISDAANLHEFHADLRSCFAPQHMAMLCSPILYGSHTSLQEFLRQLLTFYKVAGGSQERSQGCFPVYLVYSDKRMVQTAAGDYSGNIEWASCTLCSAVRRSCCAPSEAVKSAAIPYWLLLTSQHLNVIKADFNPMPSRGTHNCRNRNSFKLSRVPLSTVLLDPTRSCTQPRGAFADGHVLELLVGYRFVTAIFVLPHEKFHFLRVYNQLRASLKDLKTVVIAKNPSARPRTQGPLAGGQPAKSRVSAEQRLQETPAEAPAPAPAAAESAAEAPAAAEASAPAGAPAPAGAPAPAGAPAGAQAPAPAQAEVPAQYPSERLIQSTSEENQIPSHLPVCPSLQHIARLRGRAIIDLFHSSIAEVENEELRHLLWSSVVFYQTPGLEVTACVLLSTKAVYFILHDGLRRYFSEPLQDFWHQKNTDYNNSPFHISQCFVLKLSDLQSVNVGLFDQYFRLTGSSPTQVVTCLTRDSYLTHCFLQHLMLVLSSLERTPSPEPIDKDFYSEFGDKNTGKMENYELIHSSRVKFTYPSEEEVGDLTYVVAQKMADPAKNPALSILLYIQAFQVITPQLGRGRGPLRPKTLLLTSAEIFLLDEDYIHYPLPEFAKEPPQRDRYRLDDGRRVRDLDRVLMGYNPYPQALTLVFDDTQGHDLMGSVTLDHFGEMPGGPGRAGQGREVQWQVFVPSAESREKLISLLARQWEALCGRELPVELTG

## CC(Cc1ccccc1-c1cccnc1)C1=NCCN1 (stereo not drawn)
Nischarin
  Ki: > 1000 nM
[1]
  pKi: < 6

## C[C@@H](Cc1ccccc1-c1ccccc1)C1=NCCN1
Nischarin
  Ki: 97.7 nM

## CC(Oc1ccccc1)C1=NCCN1 (stereo not drawn)
Nischarin
  Ki: 309 nM

## CC(Cc1ccccc1-c1cccc(O)c1)C1=NCCN1 (stereo not drawn)
Nischarin
  Ki: > 1000 nM
[1]
  pKi: < 6

## Cc1ccccc1C[C@H](C)C1=NCCN1
Rattus norvegicus [2]
  inhibition in vivo at 30 mg/kg: 5.89%
Rattus norvegicus [3]
  inhibition in vivo at 30 mg/kg: 26%
Rattus norvegicus [4]
  inhibition in vivo at 30 mg/kg: 7.85%
Rattus norvegicus [5]
  inhibition in vivo at 30 mg/kg: 12%
Rattus norvegicus [6]
  inhibition in vivo at 30 mg/kg: 34.4%
Rattus norvegicus [7]
  inhibition in vivo at 30 mg/kg: 11.1%
Nischarin
  Ki: 13.2 nM
[1]
  pKi: < 6

## CC(Cc1ccccc1-c1ccccc1)C1=NCCN1 (stereo not drawn)
PC-12
  Ratio: 513
Rattus norvegicus [2]
  inhibition in vivo at 30 mg/kg: 11.9%
Rattus norvegicus [3]
  inhibition in vivo at 30 mg/kg: 25.4%
Rattus norvegicus [4]
  inhibition in vivo at 30 mg/kg: 34.9%
Rattus norvegicus [5]
  inhibition in vivo at 30 mg/kg: 14.2%
Rattus norvegicus [6]
  inhibition in vivo at 30 mg/kg: 27.6%
Rattus norvegicus [7]
  inhibition in vivo at 30 mg/kg: 13.8%
Nischarin
  Ki: 155 nM
[1]
  pKi: 4.1

## CC(Cc1ccccc1Cl)C1=NCCN1 (stereo not drawn)
Rattus norvegicus [2]
  inhibition in vivo at 30 mg/kg: 8.02%
Rattus norvegicus [3]
  inhibition in vivo at 30 mg/kg: 31.4%
Rattus norvegicus [4]
  inhibition in vivo at 30 mg/kg: 32.4%
Rattus norvegicus [5]
  inhibition in vivo at 30 mg/kg: 11.1%
Rattus norvegicus [6]
  inhibition in vivo at 30 mg/kg: 37.8%
Rattus norvegicus [7]
  inhibition in vivo at 30 mg/kg: 11.6%
Nischarin
  Ki: 195 nM
[1]
  pKi: < 6

## CC(Oc1ccccc1-c1ccccc1)C1=NCCN1 (stereo not drawn) [BIPHENYLINE]
Nischarin
  Ki: 126 nM

## Cc1ccccc1CC(C)C1=NCCN1 (stereo not drawn)
Rattus norvegicus [8]
  inhibition: inactive
Rattus norvegicus [2]
  inhibition in vivo at 30 mg/kg: 7.66%
Rattus norvegicus [3]
  inhibition in vivo at 30 mg/kg: 29.7%
Rattus norvegicus [4]
  inhibition in vivo at 30 mg/kg: 53.1%
Rattus norvegicus [5]
  inhibition in vivo at 30 mg/kg: 11.7%
Rattus norvegicus [6]
  inhibition in vivo at 30 mg/kg: 32.4%
Rattus norvegicus [7]
  inhibition in vivo at 30 mg/kg: 13.6%
Nischarin
  Ki: 23.4 nM
[1]
  pKi: < 6

## CC(Cc1ccccc1-c1ccsc1)C1=NCCN1 (stereo not drawn)
Rattus norvegicus [2]
  inhibition in vivo at 30 mg/kg: 11.2%
Rattus norvegicus [3]
  inhibition in vivo at 30 mg/kg: 35.1%
Rattus norvegicus [4]
  inhibition in vivo at 30 mg/kg: 10.8%
Rattus norvegicus [5]
  inhibition in vivo at 30 mg/kg: 26.4%
Rattus norvegicus [6]
  inhibition in vivo at 30 mg/kg: 24.8%
Rattus norvegicus [7]
  inhibition in vivo at 30 mg/kg: 19.7%
Nischarin
  Ki: 63.1 nM
[1]
  pKi: < 6

## C[C@H](Cc1ccccc1-c1ccccc1)C1=NCCN1
Nischarin
  Ki: 2240 nM

## Cc1ccccc1C[C@@H](C)C1=NCCN1
Rattus norvegicus [2]
  inhibition in vivo at 30 mg/kg: 0%
Rattus norvegicus [3]
  inhibition in vivo at 30 mg/kg: 12.7%
Rattus norvegicus [4]
  inhibition in vivo at 30 mg/kg: 3.01%
Rattus norvegicus [5]
  inhibition in vivo at 30 mg/kg: 9.17%
Rattus norvegicus [6]
  inhibition in vivo at 30 mg/kg: 8.67%
Rattus norvegicus [7]
  inhibition in vivo at 30 mg/kg: 4.18%
Nischarin
  Ki: 1050 nM
[1]
  pKi: < 6

— ChEMBL document CHEMBL3580533, “Antagonism/Agonism modulation to build novel antihypertensives selectively triggering i1-imidazoline receptor activation” (ACS Med Chem Lett, 2015)
